Tests used:
Format in all cases: binding
siderocalin (Scn) [1] = molecular target: T1, siderocalin (Scn) (Homo sapiens, UniProt P80188); test: tryptophan fluorescence quenching titration of metal-free ligand, pH […]
T1 construct: gene LCN2

siderocalin (Scn) [2] = molecular target: T1, siderocalin (Scn); test: tryptophan fluorescence quenching titration, pH […]; crystal structure at […] Å
siderocalin (Scn) [3] = molecular target: T1, siderocalin (Scn); test: as above; remark: listed apart in the source

T1 sequence (P80188 21-198): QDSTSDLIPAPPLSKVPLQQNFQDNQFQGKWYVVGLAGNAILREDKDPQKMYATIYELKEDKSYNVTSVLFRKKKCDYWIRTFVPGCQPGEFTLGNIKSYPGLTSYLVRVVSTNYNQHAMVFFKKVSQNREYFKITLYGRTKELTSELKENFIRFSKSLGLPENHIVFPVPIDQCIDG

## O=C(NCCCN(CCCCN(CCCNC(=O)c1cccc(=O)n1O)C(=O)c1cccc(=O)n1O)C(=O)c1cccc(=O)n1O)c1cccc(=O)n1O [HOPO, 3,4,3-LI(1,2-HOPO)]
Siderocalin (Scn) [1]
  Kd: 43 nM

## O=C(NCCCN(CCCCN(CCCNC(=O)c1cccc(=O)n1O)C(=O)c1cccc(=O)n1[O-])C(=O)c1cccc(=O)n1[O-])c1cccc(=O)n1[O-].[Ac+3] [[Ac^III(HOPO)]^1–]
Siderocalin (Scn) [2]
  Kd: 6 nM

## O=C(NCCCN(CCCCN(CCCNC(=O)c1cccc(=O)n1O)C(=O)c1cccc(=O)n1[O-])C(=O)c1cccc(=O)n1[O-])c1cccc(=O)n1[O-].[La+3] [[La^III(HOPO)]^1–]
Siderocalin (Scn) [3]
  Kd: 20 nM
